The subject of assay [1] is Ala^102Thr, Gly^363Ser human GPR84. Briefly: [^3H]140 binding assay, Ala102Thr-Gly363Ser human GPR84-Gαi2. The method, then:
(§1) The Stratagene QuikChange method (Stratagene, Agilent Technologies, Santa Clara, CA) was used to introduce alterations into FLAG-human GPR84-Gαi2 or FLAG-mouse GPR84-Gαi2. Primers utilized for mutagenesis were provided by MWG Operon (Acton, UK). Template DNA was digested with DpnI to leave only the newly synthesized mutated plasmid, and sequencing was carried out to confirm the introduction of the alterations.
(§2) Binding was initiated by the addition of membranes (5 μg of protein per tube). All assays were performed at 25 °C for 1 h before termination by the addition of ice-cold PBS and vacuum filtration through GF/C glassfibre filter-bottom 96-well microplates. Plates were washed three times with ice-cold PBS then allowed to dry for 2–3 h at room temperature. MicroScint-20 was added to dried filter plates, and radioactivity was quantified by liquid scintillation spectrometry. Specific binding was defined as the difference between binding detected in the presence and absence of 10 μM compound 020.
All data are presented as means ± SEM of at least three independent experiments. Data analysis and curve fitting was carried out using the GraphPad Prism software package version 8 (GraphPad, San Diego). […] To perform the statistical analysis of curve parameters, data from multiple experiments were fitted independently and resulting curve fit values were analyzed with indicated tests. […]

Assay [2] relates to mouse GPR84-Gαi2 fusion protein. Briefly: [^3H]140 binding assay, membranes expressing mouse GPR84-Gαi2. The method, then: as §2
All data are presented as means ± SEM of at least three independent experiments. Data analysis and curve fitting was carried out using the GraphPad Prism software package version 8 (GraphPad, San Diego). For functional assays the concentration–response data were plotted on a log axis, with the untreated vehicle control plotted at 1 log unit lower than the lowest ligand concentration and fitted to a three parameter sigmoidal curve with the Hill slope constrained to equal 1. In case of inhibition experiments with antagonists, an equivalent analysis was followed to fit an inverse sigmoidal curve. To perform the statistical analysis of curve parameters, data from multiple experiments were fitted independently and resulting curve fit values were analyzed with indicated tests. […]

In assay [3] the target is T1, GPR84 in LPS-treated THP-1 cells (Homo sapiens, UniProt Q9NQS5).
T1 construct: GPR84 expressed endogenously in human-derived cell lines and tissue; endogenous in cells; host or cells: THP-1 cells, 100 ng/mL LPS for 24 h, membranes
T1 sequence (Q9NQS5 whole entry): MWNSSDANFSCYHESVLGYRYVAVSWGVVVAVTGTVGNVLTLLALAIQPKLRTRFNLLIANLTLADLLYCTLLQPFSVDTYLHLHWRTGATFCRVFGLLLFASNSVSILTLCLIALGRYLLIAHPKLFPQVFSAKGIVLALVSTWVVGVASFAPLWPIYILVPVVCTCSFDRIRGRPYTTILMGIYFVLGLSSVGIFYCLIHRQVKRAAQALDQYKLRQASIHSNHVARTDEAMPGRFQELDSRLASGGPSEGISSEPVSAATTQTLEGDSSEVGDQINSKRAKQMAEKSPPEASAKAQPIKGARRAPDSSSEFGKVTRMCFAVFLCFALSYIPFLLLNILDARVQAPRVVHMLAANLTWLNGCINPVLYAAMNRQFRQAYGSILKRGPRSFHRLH
Put plainly: [^3H]140 binding assay, membranes of LPS-treated THP-1 cells. Particulars: LPS-treated THP-1 membranes. Here is the method: (§3) All data are presented as means ± SEM of at least three independent experiments. Data analysis and curve fitting was carried out using the GraphPad Prism software package version 8 (GraphPad, San Diego). […] In case of inhibition experiments with antagonists, an equivalent analysis was followed to fit an inverse sigmoidal curve. To perform the statistical analysis of curve parameters, data from multiple experiments were fitted independently and resulting curve fit values were analyzed with indicated tests. Antagonism experiments carried out with multiple defined concentrations of antagonist were fit to a global Gaddum/Schild EC50 shift equation to estimate pA2 values for the antagonist. For radioligand binding data, saturation binding curves were generated by fitting the specific binding, which was obtained by subtracting nonspecific from total binding, to a one site specific binding model that allows calculation of Kd values for the radioligand at wild-type and mutant receptors.

Assay [4] deals with parental Flp-In TREx 293 cells. Briefly: [^3H]140 binding assay, membranes from parental cells. Particulars: parental cell membranes. The method, then:
as §2

Assay [5] has as its target T2, ECL3/TM7 chimeric human/mouse GPR84 (Mus musculus, UniProt Q8CIM5, G345V/R346Q/S363G/V354L).
T2 construct: expressed in transfected cells; host or cells: Flp-In TREx 293 cells
Put plainly: Antagonism of 2-HTP at ECL3/TM7 human/mouse GPR84 chimera in Flp-In TREx 293 cells. The assay is classed as cell-based. The text has this: (§4) Chimeric human-mouse GPR84-HA constructs were generated using synthetic DNA sequences purchased from Eurofins Genomics (Luxembourg), that were then subcloned in-frame into the BamH1 and Xho1 sites of pcDNA5/FRT/TO.

For assay [6], the system named is mouse GPR84-Gαi2 fusion protein. Briefly: [^35S]GTPγS binding assay, membranes of Flp-In TREx 293 cells expressing mouse GPR84-Gαi2. In kind it is biochemical. The method, then:
(§5) All data are presented as means ± SEM of at least three independent experiments. Data analysis and curve fitting was carried out using the GraphPad Prism software package version 8 (GraphPad, San Diego). For functional assays the concentration–response data were plotted on a log axis, with the untreated vehicle control plotted at 1 log unit lower than the lowest ligand concentration and fitted to a three parameter sigmoidal curve with the Hill slope constrained to equal 1. In case of inhibition experiments with antagonists, an equivalent analysis was followed to fit an inverse sigmoidal curve. To perform the statistical analysis of curve parameters, data from multiple experiments were fitted independently and resulting curve fit values were analyzed with indicated tests. Antagonism experiments carried out with multiple defined concentrations of antagonist were fit to a global Gaddum/Schild EC50 shift equation to estimate pA2 values for the antagonist. For radioligand binding data, saturation binding curves were generated by fitting the specific binding, which was obtained by subtracting nonspecific from total binding, to a one site specific binding model that allows calculation of Kd values for the radioligand at wild-type and mutant receptors.
(In general: Binding of GTPγS marks nucleotide exchange on a G protein.)

Assay [7] has as its target T3, human GPR84-Gαi2 fusion protein (Homo sapiens, UniProt Q9NQS5). Put plainly: [^35S]GTPγS binding assay, membranes of Flp-In TREx 293 cells expressing human GPR84-Gαi2. In kind it is biochemical. The settings on record: for pA2: Gaddum/Schild analysis, shifts in potency of 2-HTP, mean ± SEM; for Gaddum/Schild slope: Schild plots versus 2-HTP. The method, then:
as §3

Assay [8] addresses T3, human GPR84-Gαi2 fusion protein. Briefly: cAMP assay in Flp-In TREx 293 cells expressing human GPR84-Gαi2. The assay is classed as cell-based. The method, then: cAMP experiments were performed using Flp-In T-REx293 cells induced to express the receptor of interest or CHO-K1 cells stably expressing the orthologue of interest. Experiments were carried out using a homogeneous time-resolved FRET-based detection kit (CisBio, Codolet, France) according to the manufacturer’s protocol. For the assay cells were plated at 5000 cells/well in low-volume 384-well plates. The ability of agonists to inhibit 1 μM forskolin-induced cAMP production was assessed following a preincubation for 15 min with antagonist compounds, then a further 30 min incubation with agonist compounds. Reactions were stopped according to the manufacturer’s instructions and the output was measured with a PHERAstar FS plate reader (BMG Labtech, Aylesbury, UK).

In assay [9] the target is T1, GPR84 in LPS-treated THP-1 cells. Briefly: [^35S]GTPγS binding assay, membranes of LPS-treated THP-1 cells. The assay is classed as biochemical. The settings on record: LPS-treated THP-1 membranes.
In a further assay the target is GPR84 in RAW264.7 cells (Mus musculus, UniProt Q8CIM5). Put plainly: [^35S]GTPγS binding assay, membranes of RAW264.7 cells. The settings on record: RAW264.7 membranes.
Chain of GPR84 in RAW264.7 cells (Q8CIM5 whole entry): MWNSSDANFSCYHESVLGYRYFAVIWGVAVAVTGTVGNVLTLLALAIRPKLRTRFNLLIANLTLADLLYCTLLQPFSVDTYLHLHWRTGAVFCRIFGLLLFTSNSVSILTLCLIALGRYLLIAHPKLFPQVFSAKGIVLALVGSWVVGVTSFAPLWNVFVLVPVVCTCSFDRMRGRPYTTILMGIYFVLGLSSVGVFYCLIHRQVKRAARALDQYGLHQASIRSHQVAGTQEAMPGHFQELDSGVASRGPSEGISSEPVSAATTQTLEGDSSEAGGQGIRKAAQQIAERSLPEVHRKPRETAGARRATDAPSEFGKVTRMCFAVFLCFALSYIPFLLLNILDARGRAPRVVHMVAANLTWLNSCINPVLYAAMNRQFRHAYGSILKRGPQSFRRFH
The subject of assay [10] is Thr^102Ala, Ser^363Gly mouse GPR84. Briefly: [^35S]GTPγS binding assay, Thr102Ala-Ser363Gly mouse GPR84 mutant. In kind it is biochemical. The method, then:
as §1, §5

Assay [11] relates to Ala^102Thr, Gly^363Ser human GPR84. Briefly: [^35S]GTPγS binding assay, Ala102Thr-Gly363Ser human GPR84 mutant. The assay is classed as biochemical. Here is the method: as §1, §5
In the next assay the target is T4, Humanized mGPR84 (Homo sapiens, UniProt Q9NQS5, A294V/A296R/A298P/D231Q/D276G/G248R/H223R/H226Q/I278G/I301T/K216G/K284Q/K289R/K302A/L245V/M286I/N225H/N279I/P291L/P300E/P308T/Q210R/Q299R/Q379H/Q48R/R218H/R229G/R237H/R244G/R282A/R390Q/S280R/S295H/S310A/S311P/V274A).
T4 construct: expressed in transfected cells; host or cells: Flp-In TREx 293 cells
T4 sequence (Q9NQS5 with tags, fused parts or gaps with the stated changes): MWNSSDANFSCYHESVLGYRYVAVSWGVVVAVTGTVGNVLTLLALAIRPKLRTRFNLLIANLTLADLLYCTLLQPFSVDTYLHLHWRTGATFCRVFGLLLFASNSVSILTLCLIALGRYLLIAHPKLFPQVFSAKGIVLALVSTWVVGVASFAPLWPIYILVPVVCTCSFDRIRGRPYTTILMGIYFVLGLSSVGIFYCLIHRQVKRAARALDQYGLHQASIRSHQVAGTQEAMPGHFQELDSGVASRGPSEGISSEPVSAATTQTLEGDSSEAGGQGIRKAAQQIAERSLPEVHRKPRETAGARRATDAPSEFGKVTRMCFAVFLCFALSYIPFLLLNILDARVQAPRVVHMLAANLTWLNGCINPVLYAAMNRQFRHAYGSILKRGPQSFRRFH
Briefly: Antagonism of 2-HTP at humanized mGPR84 chimera in Flp-In TREx 293 cells. The assay is classed as cell-based. Particulars: all ECL and TMD residues human in mouse backbone.
From the text: as §4

The next assay addresses T5, pig GPR84 (Sus scrofa, UniProt I6WJ99).
T5 construct: expressed in transfected cells
Put plainly: cAMP regulation assay in CHO cells expressing pig GPR84. Particulars: versus EC80 of 6-OAU. In kind it is cell-based.

A further assay addresses T6, rat GPR84 (Rattus norvegicus, UniProt D4ACK0).
T6 construct: expressed in transfected cells
Briefly: cAMP regulation assay in CHO cells expressing rat GPR84. The assay is classed as cell-based. The settings on record: versus EC80 of 6-OAU.

The next assay concerns the target macaque GPR84 (Macaca mulatta, UniProt F6W0J1). Put plainly: cAMP regulation assay in CHO cells expressing macaque GPR84. In kind it is cell-based. Particulars: versus EC80 of 6-OAU.
A further assay deals with T7, mouse GPR84 (Mus musculus, UniProt Q8CIM5).
T7 construct: expressed in transfected cells
T7 sequence (Q8CIM5 whole entry): as the sequence (Q8CIM5 whole entry) above
Briefly: cAMP regulation assay in CHO cells expressing mouse GPR84. The assay is classed as cell-based. The settings on record: versus EC80 of 6-OAU.

A further assay concerns the target T8, dog GPR84 (Canis lupus familiaris, UniProt A0A8I3P3M6).
T8 construct: expressed in transfected cells
Put plainly: cAMP regulation assay in CHO cells expressing dog GPR84. Particulars: versus EC80 of 6-OAU. In kind it is cell-based.

Where “and” joins values, the source holds several entries; their conditions need not be identical. Identical values can stand only once.

T3 sequence (Q9NQS5 whole entry, the tested form may be a part): as the sequence (Q9NQS5 whole entry) above
T3 sequence (P04899 2-355, further chain): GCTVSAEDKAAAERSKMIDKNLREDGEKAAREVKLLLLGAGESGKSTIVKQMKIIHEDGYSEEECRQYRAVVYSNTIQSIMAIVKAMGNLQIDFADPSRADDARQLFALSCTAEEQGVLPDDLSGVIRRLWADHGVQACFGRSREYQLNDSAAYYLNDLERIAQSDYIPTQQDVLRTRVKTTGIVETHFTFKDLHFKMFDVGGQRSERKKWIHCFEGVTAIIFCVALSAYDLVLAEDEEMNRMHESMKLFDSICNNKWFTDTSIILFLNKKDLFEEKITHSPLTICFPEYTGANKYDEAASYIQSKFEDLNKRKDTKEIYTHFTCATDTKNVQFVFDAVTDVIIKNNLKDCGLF
Chain of macaque GPR84 (F6W0J1 1-396): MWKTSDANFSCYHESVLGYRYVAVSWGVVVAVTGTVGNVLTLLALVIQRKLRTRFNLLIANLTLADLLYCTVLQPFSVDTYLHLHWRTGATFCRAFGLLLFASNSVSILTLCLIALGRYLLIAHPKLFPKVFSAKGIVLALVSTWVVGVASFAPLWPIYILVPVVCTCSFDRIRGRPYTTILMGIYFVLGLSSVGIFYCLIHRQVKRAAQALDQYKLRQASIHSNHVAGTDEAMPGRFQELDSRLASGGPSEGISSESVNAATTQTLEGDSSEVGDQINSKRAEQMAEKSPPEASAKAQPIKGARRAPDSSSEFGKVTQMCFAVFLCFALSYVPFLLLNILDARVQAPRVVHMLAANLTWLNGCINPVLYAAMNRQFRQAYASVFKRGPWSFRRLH
T2 sequence (Q8CIM5 whole entry G345V/R346Q/V354L/S363G): as the sequence (Q8CIM5 whole entry) above, with G345V, R346Q, V354L, S363G counted along it
T5 sequence (I6WJ99 1-396): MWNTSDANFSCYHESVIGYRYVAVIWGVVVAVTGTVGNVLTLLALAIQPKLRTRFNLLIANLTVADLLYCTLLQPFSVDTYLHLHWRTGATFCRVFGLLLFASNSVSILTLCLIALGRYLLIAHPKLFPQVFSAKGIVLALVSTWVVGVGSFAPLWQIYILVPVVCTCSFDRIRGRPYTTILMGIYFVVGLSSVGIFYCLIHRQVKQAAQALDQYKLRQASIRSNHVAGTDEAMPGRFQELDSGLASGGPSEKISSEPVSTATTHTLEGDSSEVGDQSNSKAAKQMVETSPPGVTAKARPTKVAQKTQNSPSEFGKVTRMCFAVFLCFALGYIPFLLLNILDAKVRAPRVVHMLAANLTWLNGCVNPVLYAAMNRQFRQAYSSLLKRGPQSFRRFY
T8 sequence (A0A8I3P3M6 1-393): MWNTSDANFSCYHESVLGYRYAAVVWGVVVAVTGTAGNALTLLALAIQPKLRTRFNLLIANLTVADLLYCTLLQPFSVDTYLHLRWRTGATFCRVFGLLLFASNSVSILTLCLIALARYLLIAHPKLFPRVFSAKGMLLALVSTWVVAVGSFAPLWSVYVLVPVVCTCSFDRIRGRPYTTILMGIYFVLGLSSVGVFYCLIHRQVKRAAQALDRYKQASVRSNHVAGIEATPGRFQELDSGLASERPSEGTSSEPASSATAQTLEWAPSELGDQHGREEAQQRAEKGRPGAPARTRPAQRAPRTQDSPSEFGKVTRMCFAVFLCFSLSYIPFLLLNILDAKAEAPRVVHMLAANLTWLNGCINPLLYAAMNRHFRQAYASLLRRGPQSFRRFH
T6 sequence (D4ACK0 1-396): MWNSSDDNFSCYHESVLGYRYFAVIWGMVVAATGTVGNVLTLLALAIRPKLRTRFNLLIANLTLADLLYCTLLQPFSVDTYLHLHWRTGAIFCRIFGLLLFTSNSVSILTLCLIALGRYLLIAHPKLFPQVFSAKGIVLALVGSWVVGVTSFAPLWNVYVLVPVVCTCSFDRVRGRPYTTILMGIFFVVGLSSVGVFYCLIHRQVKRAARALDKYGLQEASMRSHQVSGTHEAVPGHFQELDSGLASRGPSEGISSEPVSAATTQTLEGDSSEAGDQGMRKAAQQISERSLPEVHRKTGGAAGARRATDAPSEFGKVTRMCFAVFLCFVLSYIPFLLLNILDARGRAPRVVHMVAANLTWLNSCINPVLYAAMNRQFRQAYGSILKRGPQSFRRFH

Turning to `c1ccc(-c2nnc(Cc3c[nH]c4ccccc34)nc2-c2ccccc2)cc1` [[^3H]140, [^3H]3-((5,6-diphenyl-1,2,4-triazin-3-yl)methyl)-1H-indole], the direct binding entry in [1] is “not possible to measure binding”. In addition, the specific binding entry in assay [2] was “unable to detect specific binding”; in assay [4], “no specific binding”. This compound gave a Bmax in assay [3] of 905 ± 93 fmol/mg membrane protein.

As for `COc1ccc(-c2nnc(Cc3c[nH]c4ccccc34)nc2-c2ccc(OC)cc2)cc1` [Compound 837, 3-((5,6-Bis(4-methoxyphenyl)-1,2,4-triazin-3-yl)methyl)-1H-indole], the concentration for half-maximal inhibition (IC50) in assay [5] is 363 nM; in assay [7] (against an EC80 of embelin), below 100 nM. In assay [6] (EC80 of 2-HTP), the “antagonism of mouse GPR84” value is given as “no significant capacity to antagonize”. Further, the “affinity (from pA2)” value in assay [6] (wild-type mouse GPR84) was below 100 μM. Further, the “block of activation promoted by 2-HTP” value in assay [7] (EC80 of 2-HTP) is recorded as “fully block”. Besides, the “block of activation promoted by 6-OAU” value in [7] (EC80 of 6-OAU) was “fully block”. Moreover, the pA2 is 8.90 ± 0.08 and 8.9 in assay [7]; 7.78 ± 0.08 in assay [10] (versus 2-HTP, mean ± SEM n = 3); 6.33 ± 0.15 in assay [11] (versus 2-HTP, mean ± SEM n = 3). In addition, in assay [7], the Gaddum/Schild slope was 1.11 ± 0.04. For the same compound, the “reversal of activation produced by DIM” value in assay [7] (allosteric activator DIM) was “fully reversed”. Further, the “block of inhibition of forskolin-amplified cAMP levels by 2-HTP” value in assay [8] (2-HTP) was “fully blocked”. In [8] (6-OAU), the “block of inhibition of forskolin-amplified cAMP levels by 6-OAU” value is “fully blocked”. The “block of 2-HTP-induced [^35S]GTPγS binding” value in assay [9] is “blocked in a concentration-dependent and high potency manner”; at GPR84 in RAW264.7 cells, “unable to produce such an effect”. The figures for the “block of activation by 2-HTP” value in assay [10] and in assay [11] were “able to fully block activation by 2-HTP” and “unable to block”, respectively. Further, in assay [10] (from pA2), the “fold higher affinity than at wild-type mouse GPR84” value is “at least 5000 fold”. The “fold lower affinity than at wild-type human GPR84” value in assay [10] (from pA2) is around 13 fold; in assay [11] (from pA2), 380 fold. Also, the “affinity at humanized chimera compared with wild-type human receptor” value on Humanized mGPR84 was “equal affinity”.

On to `CC(=O)OCc1ccc(-c2nc(Cc3c[nH]c4ccccc34)nnc2-c2ccccc2)cc1` [Compound 020, 4-(3-((1H-indol-3-yl)methyl)-6-phenyl-1,2,4-triazin-5-yl)benzyl acetate], for which the pA2 in assay [6] (Gaddum/Schild analysis versus 2-HTP, wild-type mouse GPR84) is reported as below 6.0; in [7], 9.19 ± 0.10. For the same compound, the “fold higher concentrations than required to antagonize human GPR84” value in assay [6] (limited effects at mouse GPR84) is “at least 1000 fold”. Moreover, the Gaddum/Schild slope in assay [7] is reported as 1.27 ± 0.03.

For the compound `c1ccc(-c2nnc(Cc3c[nH]c4ccccc34)nc2-c2ccccc2)cc1` [Compound 140, 3-((5,6-Diphenyl-1,2,4-triazin-3-yl)methyl)-1H-indole], the IC50 is 5.6 nM against pig GPR84; 8700 nM against rat GPR84; 6.4 nM against macaque GPR84; above 10000 nM at mouse GPR84; 8.1 nM at dog GPR84.

Turning to `CC(=O)OCc1ccc(-c2nnc(Cc3c[nH]c4ccccc34)nc2-c2ccccc2)cc1` [Compound 021, 4-(3-((1H-indol-3-yl)methyl)-5-phenyl-1,2,4-triazin-6-yl)benzyl acetate], in assay [7], the pA2 was found to be 9.31 ± 0.10 and the Gaddum/Schild slope worked out at 1.14 ± 0.03.

Turning to `Ic1ccc(-c2nnc(Cc3c[nH]c4ccccc34)nc2-c2ccc(I)cc2)cc1` [Compound 441, 3-((5,6-Bis(4-iodophenyl)-1,2,4-triazin-3-yl)methyl)-1H-indole], the pA2 in assay [7] is on record as 8.07 ± 0.02.

The term IC50 denotes the point on the concentration scale where inhibition reaches its midpoint. Higher therefore signals weaker potency in that assay. One may read the pA2 as a measure of antagonist potency on a negative log scale.

The values above are taken from article PMC8506611, “Discovery and Characterization of Novel Antagonists of the Proinflammatory Orphan Receptor GPR84” (ACS Pharmacology & Translational Science, 2021).
